Where two headings read alike, the source gives them in different places. Residues, ends and D or L forms follow the SMILES beside them.
Legend:
IAPP [1] = biological target: T1, IAPP (Homo sapiens, UniProt P10997); assay: Thioflavin T (ThT) binding assay of IAPP fibrillogenesis; assay type: biochemical; conditions: for effect on IAPP amyloid self-assembly (fibrillogenesis): IAPP/peptide 1/1
T1 construct: made in house; host or cells: chemical synthesis (Fmoc solid-phase, Rink resin)
T1 sequence (P10997 34-70 limits assumed): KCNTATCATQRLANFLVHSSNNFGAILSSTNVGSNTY
Method: Of note, an incubation of LL-37 alone was also included. At the indicated time points aliquots were mixed with the ThT solution consisting of 20 μM ThT in 0.05 M glycine/NaOH (pH 8.5) and binding was determined by measuring fluorescence emission at 486 nm upon excitation at 450 nm using a Multilabel reader VictorX3 (Perkin Elmer Life Sciences). […] An aliquot of a solution consisting mostly of IAPP fibrils (fIAPP) based on ThT binding and TEM (FIGS. 18-19) (7 days aged IAPP (16.5 μM) made as above) was added to the incubations resulting in a final seed (fIAPP) concentration of 1.65 μM. Incubations of (unseeded) IAPP alone (16.5 μM) and of 10% fIAPP alone were included as controls. ThT binding was determined at the indicated time points as above. […] Solutions containing (unseeded) IAPP alone (16.5 μM), IAPP seeded with fIAPP (10%), and IAPP seeded with LL-37-treated fIAPP (10%) were made in ThT assay buffer and kinetics of fibrillogenesis were determined by the ThT binding assay as described above.

[2] = tested on: IAPP cytotoxicity in RIN5fm cells; assay: MTT reduction assay: formation of β-cell damaging IAPP assemblies; assay type: cell-based, rat
Method: (§1) Briefly, RIN5fm cells were cultured and plated in 96-well plates as described. Solutions of IAPP alone and its mixtures with peptides were aged in ThT assay buffer as described under “ThT binding assays”. At the indicated incubation time points (24 h or 7 days) aliquots were diluted with cell culture medium and added to the cells. Following incubation with the cells for ~20 h (37° C., humified atmosphere containing 5% CO2), cell damage was verified by the MTT reduction assay.

Fluos-IAPP = biological target: T2, Fluos-IAPP (Homo sapiens, UniProt P10997); assay: Fluorescence spectroscopic titrations; assay type: binding; conditions: for Kd: pH 7.4, mean (SD) of 3 binding curves, read-out: app. Kd
T2 construct: made in house; host or cells: chemical synthesis
T2 sequence (P10997 34-70 limits assumed): T1 sequence (P10997 34-70 limits assumed)
Method: Fluorescence spectroscopic titration studies were performed with a JASCO FP-6500 fluorescence spectrophotometer using a previously described experimental protocol. Briefly, excitation was at 492 nm and emission spectra were recorded between 500 and 600 nm. […] For all experiments, freshly made stocks of peptides and their fluorescently labeled analogs in HFIP were used. Measurements were performed in 10 mM sodium phosphate buffer (pH 7.4) containing 1% HFIP within 2-5 min following solution preparation at room temperature. Of note, under these conditions freshly made Fluos-IAPP (5 nM) solutions consist mostly of monomers. App. Kds were calculated using 1/1 binding models as previously described and are means (±SD) of three binding curves.

RIN5fm cells = assay type: cell-based, rat
Method: as §1

IAPP [3] = biological target: T1, IAPP; assay: Cross-linking, NuPAGE and Western blot; conditions: IAPP 30 μM, 1/1, pH 7.4
Method: Cross-linking studies were preformed using a previously developed assay system. […] Solutions were cross-linked using 25% aqueous glutaraldehyde (Sigma-Aldrich) and 10% aqueous trichloroacetic acid (TCA) was used to precipitate cross-linked peptides. Pellets were dissolved in reducing NuPAGE sample buffer, boiled for 5 min, and subjected to NuPAGE electrophoresis in 4-12% Bis-Tris gels with MES running buffer (Invitrogen). The same volume of each solution (same IAPP amount) was loaded in all lanes. Peptides were blotted using a XCell II Blot Module blotting system (Invitrogen).

IAPP [4] = biological target: T1, IAPP; assay: Far-UV CD spectroscopy of IAPP conformation and misfolding; conditions: 1/1, 5 μM each, pH 7.4
Method: Far-UV CD studies were performed using a Jasco 715 spectropolarimeter. Spectra were recorded at room temperature between 195 and 250 nm, at 0.1 nm intervals, and with a response time of 1 second. Each spectrum is an average of 3 spectra. All CD studies were performed in aqueous 10 mM sodium phosphate buffer (pH 7.4) containing 1% HFIP (CD assay buffer) at room temperature; this assay system has been earlier developed and found to be suitable for following kinetics of IAPP (5 μM) misfolding into β-sheets and amyloid fibrils alone or in the presence of inhibitors. Briefly, peptide stocks in HFIP were freshly made (4° C.), diluted with assay buffer (room temperature) at the indicated concentrations within the cuvette, and following gentle mixing spectra were measured immediately or at the indicated incubation time points. […] The CD spectrum of IAPP at the incubation time point of 24 h (endpoint) was measured after gentle mixing to re-dissolve precipitated aggregates. The CD spectrum of the buffer was always subtracted from the CD spectra of the peptide solutions.

[5] = tested on: autoimmune diabetes in NOD mice; conditions: prediabetic NOD mice; cited from earlier work
[6] = biological target: T3, IAPP monomers and fibrils (Homo sapiens, UniProt P10997); assay: Dot blot analysis; assay type: binding; conditions: FAM-LL-37 200 nM, IAPP 40 μg spotted
T3 construct: made in house; host or cells: chemical synthesis (Fmoc solid-phase, Rink resin)
T3 sequence (P10997 34-70 limits assumed): T1 sequence (P10997 34-70 limits assumed)
Method: IAPP monomers or IAPP fibrils (fIAPP) containing solutions (different amounts up to 40 μg) were spotted onto a nitrocellulose membrane. These solutions were prepared by incubating an IAPP solution (1 mg/ml) in ThT assay buffer for 0 h (“monomers”) or 24 h (“fibrils”); the presence of fibrils was confirmed by ThT binding and TEM (not shown). The membrane was washed with TBSn (20 mM Tris/HCl, 150 mM NaCl and 0.05% Tween-20), blocked with 5% milk in TBSn overnight at 10° C., and washed again with TBSn. […] Following washings with incubation buffer and TBSn, bound FAM-LL-37 was visualized with a LAS-4000mini instrument (Fujifilm). Of note, glucagon fibrils were spotted as well to control for the specificity of the observed strong binding of FAM-LL-37 to fIAPP (not shown). Glucagon fibrils were made by incubating glucagon in 10 mM HCl (2 μg/μl) (10 days) followed by neutralization with 10 mM NaOH; ThT binding and TEM confirmed fibril formation (not shown). The ThT buffer alone was also spotted to control for NSB. In addition, to control for the interference of fibril autofluorescence, a membrane containing spotted fIAPP which had been incubated in buffer alone w/o FAM-LL-37 was included in each assay; in general, fIAPP autofluorescence contributed up to 25% of the total amount of fluorescence observed in fIAPP bound to FAM-LL-37.

[7] = aged IAPP/peptide mixtures 1/1, RIN5fm cells

## CC[C@H](C)[C@H](NC(=O)[C@H](CCCCN)NC(=O)[C@H](CCC(=O)O)NC(=O)[C@H](CCCCN)NC(=O)[C@H](CO)NC(=O)[C@H](CCCCN)NC(=O)[C@H](CCCNC(=N)N)NC(=O)[C@H](Cc1ccccc1)NC(=O)[C@H](Cc1ccccc1)NC(=O)[C@H](CC(=O)O)NC(=O)CNC(=O)[C@H](CC(C)C)NC(=O)[C@@H](N)CC(C)C)C(=O)NCC(=O)O [LL-37(1-14)] (H-LLGDFFRKSKEKIG-OH; N-terminus assumed)
IAPP [1]; IAPP 16.5 μM
  effect on IAPP amyloid self-assembly (fibrillogenesis): unable to interfere
[2]; [7]
  effect on formation of cytotoxic IAPP assemblies (cell-damaging effects): unable to interfere
Fluos-IAPP; Fluos-IAPP 5 nM
  Kd: 2540 nM
Fluos-IAPP; app. Kd comparison
  weaker binding to Fluos-IAPP: ~ 30 fold

## CC[C@H](C)[C@H](NC(=O)[C@H](CCCNC(=N)N)NC(=O)[C@H](CCC(N)=O)NC(=O)[C@@H](NC(=O)[C@@H](NC(=O)[C@H](CCCNC(=N)N)NC(=O)[C@H](CCCCN)NC(=O)[C@H](Cc1ccccc1)NC(=O)[C@H](CCC(=O)O)NC(=O)[C@@H](N)CCCCN)[C@@H](C)CC)C(C)C)C(=O)N[C@@H](CCCCN)C(=O)N[C@@H](CC(=O)O)C(=O)N[C@@H](Cc1ccccc1)C(=O)N[C@@H](CC(C)C)C(=O)N[C@@H](CCCNC(=N)N)C(=O)N[C@@H](CC(N)=O)C(=O)N[C@@H](CC(C)C)C(=O)N[C@H](C(=O)N1CCC[C@H]1C(=O)N[C@@H](CCCNC(=N)N)C(=O)N[C@H](C(=O)N[C@@H](CCC(=O)O)C(=O)N[C@@H](CO)C(=O)O)[C@@H](C)O)C(C)C [LL-37(15-37)] (H-KEFKRIVQRIKDFLRNLVPRTES-OH; N-terminus assumed)
IAPP [1]; IAPP 16.5 μM
  effect on IAPP amyloid self-assembly (fibrillogenesis): unable to interfere
[2]; [7]
  effect on formation of cytotoxic IAPP assemblies (cell-damaging effects): unable to interfere
Fluos-IAPP; Fluos-IAPP 5 nM
  Kd: 31.9 nM

## CC[C@H](C)[C@H](NC(=O)[C@H](CCCCN)NC(=O)[C@H](CCC(=O)O)NC(=O)[C@H](CCCCN)NC(=O)[C@H](CO)NC(=O)[C@H](CCCCN)NC(=O)[C@H](CCCNC(=N)N)NC(=O)[C@H](Cc1ccccc1)NC(=O)[C@H](Cc1ccccc1)NC(=O)[C@H](CC(=O)O)NC(=O)CNC(=O)[C@H](CC(C)C)NC(=O)[C@@H](N)CC(C)C)C(=O)NCC(=O)N[C@@H](CCCCN)C(=O)N[C@@H](CCC(=O)O)C(=O)N[C@@H](Cc1ccccc1)C(=O)N[C@@H](CCCCN)C(=O)N[C@@H](CCCNC(=N)N)C(=O)N[C@H](C(=O)N[C@H](C(=O)N[C@@H](CCC(N)=O)C(=O)N[C@@H](CCCNC(=N)N)C(=O)N[C@H](C(=O)N[C@@H](CCCCN)C(=O)N[C@@H](CC(=O)O)C(=O)N[C@@H](Cc1ccccc1)C(=O)N[C@@H](CC(C)C)C(=O)N[C@@H](CCCNC(=N)N)C(=O)N[C@@H](CC(N)=O)C(=O)N[C@@H](CC(C)C)C(=O)N[C@H](C(=O)N1CCC[C@H]1C(=O)N[C@@H](CCCNC(=N)N)C(=O)N[C@H](C(=O)N[C@@H](CCC(=O)O)C(=O)N[C@@H](CO)C(=O)O)[C@@H](C)O)C(C)C)[C@@H](C)CC)C(C)C)[C@@H](C)CC [LL-37]
IAPP [1]; IAPP 16.5 μM
  effect on IAPP amyloid self-assembly (fibrillogenesis): effectively suppressed IAPP amyloid self-assembly
IAPP [1]; IAPP 16.5 μM, LL-37 1/1, 10% fIAPP seeds
  effect on seeding of IAPP fibrillogenesis by fIAPP (10%): fully suppressed
IAPP [1]; fIAPP incubated with LL-37 (10-fold) for 24 h, used as 10% seeds
  seeding ability of fIAPP after treatment with peptide: converts them into seeding incompetent assemblies
[2]
  effect on formation of cytotoxic IAPP assemblies (cell-damaging effects): effectively suppressed formation of cytotoxic IAPP assemblies
[2]; rat
  IC50: 17 nM
Fluos-IAPP; Fluos-IAPP 5 nM, 100-fold molar excess of LL-37
  increase of Fluos-IAPP fluorescence emission: 322%
Fluos-IAPP; Fluos-IAPP 5 nM
  Kd: 88.1 nM
RIN5fm cells
  cytotoxicity of peptide alone: not cytotoxic
IAPP [3]
  hetero-assemblies with IAPP by cross-linking: formation of IAPP-LL-37 hetero-tetramers
IAPP [4]
  effect on IAPP conformation / misfolding: strong time-dependent increase of random coil contents and no precipitation occurred

## CC[C@H](C)[C@H](NC(=O)[C@H](CCCCN)NC(=O)[C@H](CO)NC(=O)[C@H](Cc1ccccc1)NC(=O)[C@H](CCC(=O)O)NC(=O)[C@H](Cc1ccccc1)NC(=O)[C@H](CCCNC(=N)N)NC(=O)[C@H](CC(C)C)NC(=O)[C@H](CCCCN)NC(=O)[C@H](CC(C)C)NC(=O)CN)C(=O)N[C@@H](CCCCN)C(=O)NCC(=O)N[C@@H](CCC(=O)O)C(=O)N[C@@H](Cc1ccccc1)C(=O)N[C@@H](CC(C)C)C(=O)N[C@@H](CCCCN)C(=O)N[C@H](C(=O)N1CCC[C@H]1C(=O)N[C@@H](CCC(=O)O)C(=O)N[C@H](C(=O)N[C@@H](CCCNC(=N)N)C(=O)N[C@@H](Cc1ccccc1)C(=O)N[C@@H](CCCNC(=N)N)C(=O)N[C@@H](CC(=O)O)C(=O)N[C@H](C(=O)N[C@@H](CCCCN)C(=O)N[C@@H](CC(C)C)C(=O)N[C@@H](CCCCN)C(=O)N[C@@H](CC(=O)O)C(=O)N[C@@H](CC(N)=O)C(=O)N[C@@H](CCCNC(=N)N)C(=O)N[C@H](C(=O)N[C@@H](CO)C(=O)N[C@H](C(=O)N[C@@H](CCC(N)=O)C(=O)N[C@@H](CCCNC(=N)N)C(=O)O)C(C)C)[C@@H](C)CC)[C@@H](C)CC)C(C)C)[C@@H](C)O [scrLL-37, reference compound] (H-GLKLRFEFSKIKGEFLKTPEVRFRDIKLKDNRISVQR-OH)
[2]; up to 10-fold molar excess of peptide, 7 days aged, RIN5fm cells
  effect on IAPP cytotoxicity: unable to inhibit

## CRAMP
[5]
  effect on autoimmune diabetes: dampening the incidence of autoimmune diabetes

## FAM-LL-37: N-amino-terminal fluorescein labeled LL-37 with a 6-aminohexanoic acid spacer between FAM and the N-terminus
[6]
  binding to IAPP monomers and fibrils: bound both IAPP fibrils and monomers

From patent publication US12685490B2 (The Board of Trustees of the Leland Stanford Junior …, priority 2020, dated 2026)
